Laboratory results: patent US12144889B2, “Methods of treating allergic conjunctivitis” (OCULAR THERAPEUTIX, INC., priority 2020, dated 2024)

Tests used:
[1] = Solubility of dexamethasone in water / aqueous medium; type: physicochemical; details: aqueous medium such as the tear fluid
Source text: In certain embodiments of the present invention, dexamethasone is micronized and may have a D50 particle size of less than about 10 μm and/or a D99 particle size of less than about 50 μm. A specific suitable micronized dexamethasone for use in certain embodiments of the present invention is “Dexamethasone USP micronized” from Pfizer with a D90 particle size of equal to or less than about 5 μm (i.e., the volume portion of particles with a particle size of or below about 5 μm is 90%), and a D98 particle size of equal to or below about 10 μm (i.e., the volume portion of particles with a particle size of equal to or below about 10 μm is 98%). The “D” value such as in “D50” means that the indicated percentage by volume (such as 50 volume-% in D50 etc.) of all particles within the respective bulk material (which has a certain particle size distribution) has a particle size of or below the indicated value, e.g. a D50 particle size of below about 10 μm means that 50 volume-% of the particles have a particle size of or below about 10 μm. The particle size distribution can be commonly measured by methods known in the art, and includes sieving as well as laser diffraction methods. […]
It is believed that release of the glucocorticoid into the tear fluid is determined by the glucocorticoid's solubility in an aqueous environment. […]

[2] = 25° C.; cited from earlier work
[3] = oral, cited from earlier work; for Relative Potency: with reference to cortisol

| Compound | solubility [1] | solubility in water [2] | Equivalent Dose [3] | Relative Potency [3] |
| --- | --- | --- | --- | --- |
| C[C@@H]1C[C@H]2[C@@H]3CCC4=CC(=O)C=C[C@]4(C)[C@@]3(F)[C@@H](O)C[C@]2(C)[C@@]1(O)C(=O)CO [Dexamethasone, 9-Fluor-11β,17,21-trihydroxy-16α-methyl-pregna-1,4-dien-3,20-dion] | < 100 µg/mL | approx. 89 mg/L | 0.8 mg | – |
| C[C@]12C=CC(=O)C=C1CC[C@@H]1[C@@H]2[C@@H](O)C[C@@]2(C)[C@H]1CC[C@]2(O)C(=O)CO [Prednisolone] | – | – | 5 mg | 4 |
| C[C@]12CCC(=O)C=C1CC[C@@H]1[C@@H]2[C@@H](O)C[C@@]2(C)[C@H]1CC[C@]2(O)C(=O)CO [Cortisol (Hydrocortisone), Cortisol] | – | – | 20 mg | 1 |
| C[C@]12C=CC(=O)C=C1CC[C@H]1[C@@H]3C[C@@H](O)[C@](O)(C(=O)CO)[C@@]3(C)C[C@H](O)[C@@]12F [Triamcinolone] | – | – | 4 mg | 5 |
